Test results: US20220280594A1, “APPLICATION OF POLYPEPTIDE OR DERIVATIVE THEREOF” (CHENGDU HUITAI BIOMEDICINE CO., LTD., priority 2019, published 2022)
Ends that are not written are not given here. PEG = not defined here

Assays:
Assay type in all cases: cell-based
[1] = test system: human lung cancer cells (95D); assay: scratch assay, migration of 95D cells; conditions: 10 μM, 48 hours, control group 55.3 ± 3.19
Experimental: (§1) In the scratch assay, the cell migration rate was negatively correlated with the inhibitory effect of the drug component on tumor cell migration ability. The cell migration inhibition experiment was described as follows: tumor cells were cultured in vitro, cells in logarithmic growth phase were collected and seeded evenly in a 24-well plate at a density of 1-2×10^5 cells/well; the cells were cultured in a cell incubator until a monolayer was formed; a scratch tool was used to make a “-” (straight) scratch on the monolayer of cells; the cells were washed 1-3 times with PBS, and a medium (with 2% fetal bovine serum) containing specific test components was added to the culture. Experimental grouping: PBS control group; polypeptide or derivative thereof treatment group (N1-N54), 10 μM. Three independent parallel wells were set up in each group, and the cells were cultured continuously in a cell incubator for 48 hours. […] At least 3 representative images for each well were taken. ImageJ software was used to count the migration distance of the cells, and the cell migration rate was calculated as: cell migration rate (%)=(width of original scratch−width of current scratch)/width of original scratch×100.
This example was a scratch assay to evaluate the inhibitory effect of the polypeptide or derivative thereof (N1-N54) on the migration ability of human lung cancer cells (95D). The experimental method was as described in Example 2.

[2] = test system: human lung squamous carcinoma cells (NCI-H226); assay: scratch assay, migration of NCI-H226 cells; conditions: NCI-H226, 10 μM, 48 hours; control group 65.31 ± 3.19
Experimental: as §1
This example was a scratch assay to evaluate the inhibitory effect of the polypeptide or derivative thereof (N1-N54) on the migration ability of human lung squamous carcinoma cells (NCI-H226). The experimental method was as described in Example 2.

[3] = test system: human pancreatic cancer cells (PANC-1); assay: scratch assay, migration of PANC-1 cells; conditions: PANC-1, 10 μM, 48 hours; control group 66.65 ± 3.37
Experimental: as §1
This example was a scratch assay to evaluate the inhibitory effect of the polypeptide or derivative thereof (N1-N54) on the migration ability of human pancreatic cancer cells (PANC-1). The experimental method was as described in Example 2.

[4] = test system: human pancreatic cancer cells (PANC-1); assay: transwell invasion assay, PANC-1 cells; conditions: PANC-1 transwell invasion, 10 μM, 24 hours; control group 727 ± 68
From the text: (§2) The Transwell chamber system was used in the transwell cell invasion experiment. The chamber has an upper layer and a lower layer, which are separated by an artificial semipermeable membrane in the middle. The upper surface of the semipermeable membrane is coated with a layer of artificial matrigel to simulate extracellular matrix. Cells that have invaded through the matrigel and semi-permeable membrane will attach to the lower surface of the semi-permeable membrane. The invasion ability is evaluated by counting the number of cells on the lower surface of the semi-permeable membrane. The number of cells that have invaded is negatively correlated with the inhibitory effect of the drug on the invasion ability of the tumor cells. Transwell invasion assay was performed as follows: tumor cells were cultured in vitro, cells in logarithmic growth phase were collected, and cell suspension was prepared with fresh serum-free medium at a density of 2-3×10^5 cells/mL. Cells were inoculated, 100 μL/well cell suspension (serum-free medium) in the upper chamber and 600 μL/well complete culture medium in the lower chamber. After incubated in 37° C., 5% CO2 incubator for 4-5 hours, serum-free medium (100 μL/well) was added to the control group, and serum-free medium containing polypeptide or derivative thereof (N1-N54) was added to the upper chamber of the treatment group (100 μL/well), the final concentration of the peptide or derivative thereof in the upper chamber was 10 μM. The cells were incubated continuously for 24 hours, and then fixed with methanol and stained with crystal violet. Images were taken under a microscope and the number of invaded cells was counted with ImageJ.
This example was the transwell cell invasion experiment to evaluate the inhibitory effect of the polypeptide or derivative thereof (N1-N54) on the invasion ability of human pancreatic cancer cells (PANC-1). The experimental method was as described in Example 4.

[5] = test system: human liver adenocarcinoma cells (SK-HEP-1); assay: transwell migration assay, SK-HEP-1 cells; conditions: SK-HEP-1 transwell migration, 10 μM, 24 hours; control group 1 782 ± 108, control group 2 768 ± 86
Experimental: as §2, with “migration” for “invasion”, “middle.” for “middle. The upper surface of the semipermeable membrane is coated with a layer of artificial matrigel to simulate extracellular matrix.”, “migrated” for “invaded”, “the” for “the matrigel and”
This example was a transwell cell migration experiment to evaluate the inhibitory effect of the polypeptide or derivative thereof (N1-N54) on the migration ability of human liver adenocarcinoma cells (SK-HEP-1). The experimental method was as described in Example 3.

[6] = test system: human liver adenocarcinoma cells (SK-HEP-1); assay: transwell invasion assay, SK-HEP-1 cells; conditions: SK-HEP-1 transwell invasion, 10 μM, 24 hours; control group 767 ± 91
From the text: as §2
This example was a transwell cell invasion experiment to evaluate the inhibitory effect of the polypeptide or derivative thereof (N1-N54) on the invasion ability of human liver adenocarcinoma cells (SK-HEP-1). The experimental method was as described in Example 4.

[7] = test system: human oral epidermoid carcinoma KB cells; assay: scratch assay, migration of KB cells; conditions: 10 μM, 48 hours, control group 54.03 ± 4.21
Experimental: as §1
This example was a scratch assay to evaluate the inhibitory effect of the polypeptide or derivative thereof (N1-N54) on the migration ability of human oral epidermoid carcinoma cells (KB). The experimental method was as described in Example 2.

[8] = test system: human thyroid cancer cells (FRO); assay: scratch assay, migration of FRO cells; conditions: 10 μM, 48 hours, control group 60.34 ± 8.32
Experimental: as §1
This example was a scratch assay to evaluate the inhibitory effect of the polypeptide or derivative thereof (N1-N54) on the migration ability of human thyroid cancer cells (FRO). The experimental method was as described in Example 2.

## N38: SEQ ID NO: 1 with one amino acid added at each terminal and PEG modification at the carboxyl terminal (FYRVRFLAKENVTQDAEDNC-{PEG}; reading uncertain)
[1]
  Migration rate (%) (mean ± SD, P): 37.60 ± 3.67,** %
[2]
  Migration rate (%) (mean ± SD, P): 47.66 ± 6.39,* %
[3]
  Migration rate (%) (mean ± SD, P): 24.87 ± 5.81,*** %
[4]
  Number of cells (mean ± SD, P), invaded cells: 2.62 ± 21,****
[5]
  Number of cells (mean ± SD, P), migrated cells: 380 ± 32,***
[6]
  Number of cells (mean ± SD, P), invaded cells: 249 ± 42,****
[7]
  Migration rate (%) (mean ± SD, P): 15.57 ± 3.65,* %
[8]
  Migration rate (%) (mean ± SD, P): 19.23 ± 7.52,** %

## N20: SEQ ID NO: 1 with addition of one amino acid at the amino terminal and deletion of position 18 (RYRVRFLAKENVTQDAED)
[1]
  Migration rate (%) (mean ± SD, P): 43.15 ± 5.46,* %
[2]
  Migration rate (%) (mean ± SD, P): 19.54 ± 6.51,*** %
[3]
  Migration rate (%) (mean ± SD, P): 41.56 ± 6.68,* %
[4]
  Number of cells (mean ± SD, P), invaded cells: 273 ± 12,****
[5]
  Number of cells (mean ± SD, P), migrated cells: 299 ± 35,****
[6]
  Number of cells (mean ± SD, P), invaded cells: 242 ± 22,****
[7]
  Migration rate (%) (mean ± SD, P): 6.92 ± 3.28,*** %
[8]
  Migration rate (%) (mean ± SD, P): 24.03 ± 8.61,* %

## N1: polypeptide with the amino acid sequence set forth in SEQ ID NO: 1 (YRVRFLAKENVTQDAEDN)
[1]
  Migration rate (%) (mean ± SD, P): 27.31 ± 4.35,** %
[2]
  Migration rate (%) (mean ± SD, P): 12.68 ± 9.07,*** %
[3]
  Migration rate (%) (mean ± SD, P): 18.89 ± 6.68,*** %
[4]
  Number of cells (mean ± SD, P), invaded cells: 83 ± 26,****
[5]
  Number of cells (mean ± SD, P), migrated cells: 87 ± 10,****
[6]
  Number of cells (mean ± SD, P), invaded cells: 343 ± 38,***
[7]
  Migration rate (%) (mean ± SD, P): 7.49 ± 2.99,*** %
[8]
  Migration rate (%) (mean ± SD, P): 7.45 ± 2.78,*** %

## N40: SEQ ID NO: 1 with deletion of positions 1-5 and 15-18, PEG at the amino terminal, two amino acids added at the carboxyl terminal ({PEG}-LAKENVTQDRC; reading uncertain)
[1]
  Migration rate (%) (mean ± SD, P): 36.23 ± 5.05,** %
[2]
  Migration rate (%) (mean ± SD, P): 17.00 ± 6.49,*** %
[3]
  Migration rate (%) (mean ± SD, P): 13.24 ± 8.56,*** %
[4]
  Number of cells (mean ± SD, P), invaded cells: 273 ± 21,****
[5]
  Number of cells (mean ± SD, P), migrated cells: 290 ± 33,****
[6]
  Number of cells (mean ± SD, P), invaded cells: 123 ± 26,****
[7]
  Migration rate (%) (mean ± SD, P): 6.47 ± 4.39,*** %
[8]
  Migration rate (%) (mean ± SD, P): 39.96 ± 4.95,* %

## N41: SEQ ID NO: 1 with addition of two amino acids at the amino terminal, deletion of position 18, PEG at the carboxyl terminal (FRYRVRFLAKENVTQDAED-{PEG}; reading uncertain)
[1]
  Migration rate (%) (mean ± SD, P): 32.62 ± 3.79,** %
[2]
  Migration rate (%) (mean ± SD, P): 15.30 ± 8.69,*** %
[3]
  Migration rate (%) (mean ± SD, P): 14.44 ± 7.40,*** %
[4]
  Number of cells (mean ± SD, P), invaded cells: 288 ± 38,****
[5]
  Number of cells (mean ± SD, P), migrated cells: 280 ± 24,****
[6]
  Number of cells (mean ± SD, P), invaded cells: 58 ± 12,****
[7]
  Migration rate (%) (mean ± SD, P): 20.01 ± 2.07,** %
[8]
  Migration rate (%) (mean ± SD, P): 40.10 ± 2.73,* %

## N6: SEQ ID NO: 1 with deletion of four amino acids at the carboxyl terminal (positions 15-18) (YRVRFLAKENVTQD)
[1]
  Migration rate (%) (mean ± SD, P): 39.20 ± 4.24,** %
[2]
  Migration rate (%) (mean ± SD, P): 19.72 ± 8.97,** %
[3]
  Migration rate (%) (mean ± SD, P): 36.66 ± 5.57,** %
[4]
  Number of cells (mean ± SD, P), invaded cells: 110 ± 5,****
[5]
  Number of cells (mean ± SD, P), migrated cells: 157 ± 13,****
[6]
  Number of cells (mean ± SD, P), invaded cells: 145 ± 29,****
[7]
  Migration rate (%) (mean ± SD, P): 15.79 ± 3.16,** %
[8]
  Migration rate (%) (mean ± SD, P): 3.24 ± 1.80,*** %

## N51: SEQ ID NO: 1 with A15R, one amino acid added at each terminal, PEG modification at the amino terminal ({PEG}-FYRVRFLAKENVTQDREDNC; reading uncertain)
[1]
  Migration rate (%) (mean ± SD, P): 30.04 ± 5.08,** %
[2]
  Migration rate (%) (mean ± SD, P): 33.16 ± 4.43,** %
[3]
  Migration rate (%) (mean ± SD, P): 20.85 ± 8.10,*** %
[4]
  Number of cells (mean ± SD, P), invaded cells: 282 ± 28,****
[5]
  Number of cells (mean ± SD, P), migrated cells: 306 ± 46,***
[6]
  Number of cells (mean ± SD, P), invaded cells: 248 ± 39,****
[7]
  Migration rate (%) (mean ± SD, P): 37.96 ± 3.60,* %
[8]
  Migration rate (%) (mean ± SD, P): 17.93 ± 5.55,** %

## N3: SEQ ID NO: 1 with deletion of position 18 and PEG modification at the amino terminal ({PEG}-YRVRFLAKENVTQDAED; reading uncertain)
[1]
  Migration rate (%) (mean ± SD, P): 30.19 ± 5.91,** %
[2]
  Migration rate (%) (mean ± SD, P): 16.38 ± 6.85,*** %
[3]
  Migration rate (%) (mean ± SD, P): 29.67 ± 5.64,*** %
[4]
  Number of cells (mean ± SD, P), invaded cells: 111 ± 10,****
[5]
  Number of cells (mean ± SD, P), migrated cells: 112 ± 10,****
[6]
  Number of cells (mean ± SD, P), invaded cells: 372 ± 62,***
[7]
  Migration rate (%) (mean ± SD, P): 9.95 ± 2.19,*** %
[8]
  Migration rate (%) (mean ± SD, P): 3.51 ± 1.34,*** %

## N18: SEQ ID NO: 1 with addition of one amino acid at the amino terminal and one at the carboxyl terminal (FYRVRFLAKENVTQDAEDNC)
[1]
  Migration rate (%) (mean ± SD, P): 25.71 ± 4.05,*** %
[2]
  Migration rate (%) (mean ± SD, P): 48.17 ± 3.85,** %
[3]
  Migration rate (%) (mean ± SD, P): 13.26 ± 7.39,*** %
[4]
  Number of cells (mean ± SD, P), invaded cells: 118 ± 14,****
[5]
  Number of cells (mean ± SD, P), migrated cells: 96 ± 28,****
[6]
  Number of cells (mean ± SD, P), invaded cells: 262 ± 21,****
[7]
  Migration rate (%) (mean ± SD, P): 12.67 ± 2.33,*** %
[8]
  Migration rate (%) (mean ± SD, P): 22.96 ± 5.05%
